# Read-outs that look alike come from different tables or passages of the source.
# Legend:
# [1] = target: PRMT5/MEP50 (Homo sapiens (Human), UniProt O14744); experiment: PRMT5 Biochemical Assay (PRMT5/MEP50 enzyme assay on peptide substrate, 3H-SAM Flashplate)
# Procedure, shortened: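 Radiometric methylation of a biotin-tagged H4(1-15) peptide by human PRMT5/MEP50 from baculovirus/Sf9, with ³H-SAM incorporation read on streptavidin Flashplates. Buffer: Bicine pH 7.6, TCEP, BSG, Tween20; compound preincubated 30 min at 25 °C; stopped with 600 µM final unlabeled SAM. DMSO and SAH controls; IC50 from fitted % inhibition.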
# [2] = system: symmetric di-methyl arginine in Z-138 cells; experiment: Z-138 Methylation Assay (In Cell Western for symmetric di-methyl arginine and DNA content); assay type: cell-based; settings: Homo sapiens, read-out: ICW EC50
# Procedure, shortened: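 Z-138 cells (50,000 cells/mL) treated with compound 96 h at 37 °C, then fixed and stained for symmetric di-methyl arginine (800 nm) with DRAQ5 DNA counterstain (700 nm) on Licor Odyssey.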
# [3] = system: Z-138 cell line; experiment: Z-138 Proliferation Assay (Cell Titer Glo, 5 days); assay type: cell-based; settings: Homo sapiens, read-out: Proliferation EC50
# Procedure, shortened: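 Z-138 cells exposed 5 days at 37 °C, 5% CO2 to nine-point 3-fold dilutions (final top 20 μM, 0.2% DMSO), in triplicate. Viability read as ATP by CellTiter-Glo luminescence; IC50 from 4-parameter fit of normalized dose-response curves.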
# [4] = 120 h, Z-138 cells, 5 days, Cell Titer Glo
# Sequence of PRMT5/MEP50 (O14744 other isoform, or with tags, fused parts or gaps): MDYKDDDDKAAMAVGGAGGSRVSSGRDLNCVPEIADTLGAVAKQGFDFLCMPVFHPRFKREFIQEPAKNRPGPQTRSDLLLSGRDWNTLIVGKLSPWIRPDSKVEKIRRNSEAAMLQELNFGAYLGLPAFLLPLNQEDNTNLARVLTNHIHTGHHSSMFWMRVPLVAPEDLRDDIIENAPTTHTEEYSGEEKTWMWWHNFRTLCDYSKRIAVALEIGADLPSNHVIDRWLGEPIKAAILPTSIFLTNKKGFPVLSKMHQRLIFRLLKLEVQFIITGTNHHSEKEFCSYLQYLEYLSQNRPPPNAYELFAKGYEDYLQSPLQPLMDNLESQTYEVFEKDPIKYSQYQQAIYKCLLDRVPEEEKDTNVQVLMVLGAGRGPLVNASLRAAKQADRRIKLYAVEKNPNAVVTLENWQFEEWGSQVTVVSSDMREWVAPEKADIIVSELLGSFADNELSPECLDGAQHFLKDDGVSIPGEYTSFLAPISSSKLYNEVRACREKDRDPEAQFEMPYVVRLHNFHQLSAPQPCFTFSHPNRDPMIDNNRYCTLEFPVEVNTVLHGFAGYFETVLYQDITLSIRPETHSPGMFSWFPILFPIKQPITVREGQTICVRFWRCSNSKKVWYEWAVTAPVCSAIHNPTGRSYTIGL
# Sequence of PRMT5/MEP50 (Q9BQA1 other isoform, or with tags, fused parts or gaps partner): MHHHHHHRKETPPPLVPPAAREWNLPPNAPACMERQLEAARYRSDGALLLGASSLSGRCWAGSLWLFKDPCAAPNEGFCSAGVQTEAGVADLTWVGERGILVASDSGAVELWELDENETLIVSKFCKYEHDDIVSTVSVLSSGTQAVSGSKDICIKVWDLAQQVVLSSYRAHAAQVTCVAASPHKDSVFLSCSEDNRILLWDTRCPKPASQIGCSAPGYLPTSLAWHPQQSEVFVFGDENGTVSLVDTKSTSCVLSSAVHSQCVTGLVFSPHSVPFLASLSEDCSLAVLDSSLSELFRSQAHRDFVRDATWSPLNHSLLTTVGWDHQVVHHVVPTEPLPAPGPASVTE
Compound,IC50 ([1]; PRMT5 biochemical assay) [nM],EC50 ([2]; In Cell Western methylation) [nM],"EC50 [3, 4] [nM]","EC50 ([3]; Z-138, 120 h) [nM]",IC50 [1] [nM],EC50 [2] [nM],"EC50 ([3]; 120 h, Z-138 cells, 5 days) [nM]"
CCN(C)[C@H]1CC[C@H](Nc2cc(C(=O)NC[C@H](O)CN3CCc4ccccc4C3)ncn2)CC1 [Compound 662],< 100,< 100,101 to 1000,–,–,–,–
CC(=O)N1CCC(Nc2cc(C(=O)NC[C@H](O)CN3CCc4ccccc4C3)nc(N3CCN(C(C)=O)CC3)c2)CC1 [Compound 679],< 100,< 100,101 to 1000,–,–,–,–
CCc1nc(NC2COC2)cc(C(=O)NC[C@H](O)CN2CCc3ccccc3C2)n1 [Compound 452],< 100,< 100,101 to 1000,–,–,–,–
CCSCCN1CC(Nc2cc(C(=O)NC[C@H](O)CN3CCc4ccccc4C3)ncn2)C1 [Compound 581],< 100,101 to 1000,–,> 5000,–,–,–
COC(CNC(=O)c1cc(NC2CCN(C(=O)C3CC3)CC2)ncn1)CN1CCc2ccccc2C1 (stereo not drawn) [Compound 553],< 100,101 to 1000,> 5000,–,–,–,–
CC(C)(C)C(=O)N1CCC(Nc2cc(C(=O)NC[C@H](O)CN3CCc4ccccc4C3)ccn2)CC1 [Compound 470],< 100,< 100,< 100,–,–,–,–
CN(C)C(=O)CNCCOc1cccc(C(=O)NCC(O)CN2CCc3ccccc3C2)c1 (stereo not drawn) [Compound 340],–,–,–,–,101 to 1000,101 to 1000,> 20000
CC1(C)CC(Nc2cc(C(=O)NC[C@H](O)CN3CCc4ccccc4C3)ncn2)CC(C)(C)N1 [Compound 430],< 100,101 to 1000,1000 to 10000,–,–,–,–
O=C(NC[C@H](O)CN1CCc2ccccc2C1)c1cc(NC2CNC2)nc(N2CCOCC2)n1 [Compound 447],< 100,< 100,1000 to 10000,–,–,–,–
O=C(NC[C@H](O)CN1CCc2ccccc2C1)c1cc(NC2COC2)nc(C2CC2)n1 [Compound 480],< 100,< 100,101 to 1000,–,–,–,–
CC(=O)N1CCC(Nc2cc(C(=O)NC[C@H](O)CN3CCc4ccccc4C3)cc(OCCN(C)C)n2)CC1 [Compound 628],< 100,< 100,< 100,–,–,–,–
COc1nc(NC2COC2)cc(C(=O)NC[C@H](O)CN2CCc3ccccc3C2)n1 [Compound 465],< 100,< 100,101 to 1000,–,–,–,–
O=C(NC[C@H](O)CN1CCc2ccccc2C1)c1cc(N[C@H]2C[C@@H](C(=O)N3CCC3)C2)ncn1 [Compound 517],< 100,< 100,101 to 1000,–,–,–,–
NC(=O)c1cccc(C(=O)NCC(O)CN2CCc3ccccc3C2)c1 (stereo not drawn) [Compound 25],–,–,–,–,101 to 1000,1000 to 10000,> 20000
O=C(NC[C@H](O)CN1CCc2ccccc2C1)c1cc(O)nc(NC2CCC2)c1 [Compound 434],< 100,< 100,101 to 1000,–,–,–,–
CC(=O)N1CCC(Nc2cc(C(=O)NC[C@H](O)CN3CCc4c(C)cccc4C3)ccn2)CC1 [Compound 670],< 100,< 100,101 to 1000,–,–,–,–
CC(O)(CNC(=O)c1cc(NC2COC2)ncn1)CN1CCc2ccccc2C1 (stereo not drawn) [Compound 646],101 to 1000,101 to 1000,> 20000,–,–,–,–
CC(=O)N1CCC(Nc2cc(C(=O)NC[C@H](O)CN3CCc4cc(C)ccc4C3)ncn2)CC1 [Compound 675],< 100,< 100,101 to 1000,–,–,–,–
O=C(NC[C@H](O)CN1CCc2ccccc2C1)c1cc(NC2CCC2)nc(N2CCNCC2)c1 [Compound 393],–,–,–,–,< 100,< 100,< 100
O=C(NC[C@H](O)CN1CCc2ccccc2C1)c1cc(NC2COC2)nc(C(F)(F)F)n1 [Compound 405],< 100,< 100,101 to 1000,–,–,–,–

# Source: patent publication US10307413B2, “Tetrahydro- and dihydro-isoquinoline PRMT5 inhibitors and uses thereof” (Epizyme, Inc., priority 2013, dated 2019)
